As a reminder, the melting point is the temperature of the solid-liquid transition.

Among the data in a melting point compilation (Tetko et al.; mined from patent text by program, amines drawn as free bases though some values may be those of a salt) are melting point values, retold here.

As to `CS(=O)(=O)c1ccc(C2=C(c3ccc(CO)cc3)CCC2)cc1`, the melting point was in the range of 114 to 115 °C. For the molecule `COC(N)=CC(=O)C(C)(C)C`, the melting point was 79 to 79.5 °C. `COc1ccc2c(Cl)cc(-c3ccc(C)cc3)nc2c1` registered a melting point of 129 to 131 °C. The same measure for `O=C(Nc1ccc(C(F)(F)F)cc1)c1ccccc1NCc1ccncc1`: 171 to 175 °C; for `CC(n1ccnc1)C1(c2ccc(Cl)cc2Cl)SCCS1` (stereo not drawn): 142 °C. The molecule `Cc1cc(C(F)(C(F)(F)F)C(F)(F)F)ccc1NC(=O)c1ccnc(Cl)c1C(=O)NC(C)C` returned a melting point of 275 to 277 °C. Molecule `O=C(NCc1cccs1)C12CC3CC(CC1C3)C2` displayed a melting point of 143 to 145 °C. For `Nc1c(I)c(C(F)(F)F)nn1-c1c(Cl)cc(C(F)(F)F)cc1Cl`, the melting point is 126 °C.

`CN1CCC(CC(=O)N2c3ccccc3NC(=O)c3ccccc32)CC1` displayed a melting point above 95 °C. Molecule `COc1cc(C(=O)NS(=O)(=O)c2ccccc2C)ccc1Cn1cc(/C=C/C(=O)N(C)C)c2ccc(/C=C/C(=O)N(C)C)cc21` came in with a melting point of 271 to 273 °C.

As to `CC(=O)Nc1ccc(C(=O)NC(=O)N2CCC(Oc3ccc(Cl)cc3)CC2)cc1`, the melting point stood at 79 °C. Molecule `COc1ccc([C@@H]2O[C@H](CCC(=O)O)C(=O)N(Cc3ccccc3)c3ccccc32)cc1` (relative stereo) registered a melting point of 107 to 109 °C. For `c1cnc2c(c1)N(c1ccc3[nH]cc(C4CCNCC4)c3c1)CN2`, the melting point lay within 260 to 268 °C. The molecule `CN1C(=O)CCCc2cc(Nc3ncc(Cl)c(Nc4ccccc4C(=O)NCCO)n3)ccc21` yielded a melting point of 190 to 194 °C. For the molecule `COC(=O)Nc1ccccc1-c1c(C(=O)OC)c2cc(OC)c(OC)cc2c(=O)n1C`, the melting point lay within 165 to 170 °C. Regarding `COc1ccc(O)c(OC)c1-c1ccc(C[C@H](NC(=O)c2c(Cl)cccc2Cl)C(=O)O)cc1`, the melting point fell in the range of 164 to 165 °C.

`COC(=O)c1cc(C(O)(C(F)(F)F)C(F)(F)F)ccc1NS(C)(=O)=O` showed a melting point of 147 to 148 °C. With `O=[N+]([O-])C=C1SCCCN1S(=O)(=O)CCCO`, the melting point was 80 to 83 °C. The molecule `Cc1cccc2[nH]c(C=O)cc12` displayed a melting point of 147 to 149 °C. The same measure for `Cn1cncc1C(N)(c1ccc(Cl)cc1)c1ccc2c(c1)c(-c1cccc(Cl)c1)nc1nnnn12` (stereo not drawn): 159 °C; for `CC1(C)Cc2cccc(CCN3CCN(c4nsc5ccccc45)CC3)c2NC1=O`: 95 °C.

`Cn1nnc(-c2ccc3c(c2)c(C2=CCN(CCN4CCNC4=O)CC2)cn3-c2ccc(F)cc2)n1` gave a melting point of 201 to 203 °C. In turn, `C#Cc1ccc(C23OCC(C4CCCCC4)(CO2)CO3)cc1` had a melting point of 190 to 192 °C. For the molecule `CCc1ccc(NC2=CC3=NCN(C)C3=CC2(F)C(N)=O)c(F)c1` (stereo not drawn), the melting point is 249 to 251 °C. With `CC(C)NNC(=O)OCc1ccccc1`, the melting point is 61 to 62 °C. Consider `COc1c(C)c2c(c(C(=O)O)c1C/C=C(\C)CCC(=O)O)C(=O)OC2`, for which the melting point is 172 to 174 °C. `COC(=O)C1(n2c(=O)[nH]c3ccccc3c2=O)CCCC1` had a melting point of 164 to 165 °C. To `CN(C)CCOc1ccc2ccc(NC(=O)c3ccccc3)nc2n1` belongs 109 °C; to `COc1ccnc(N2CCN(Cc3ccc(C(C)(C)NC(C)=O)cc3)CC2)n1`, 160 to 162 °C; to `O=Cc1cc(Br)cc(Cc2cccnc2)c1`, 97 to 98 °C. To `O=C(O)c1c[nH]c(CCc2ccccc2)n1` belongs 126 to 130 °C; to `CCOC(=O)C=C1C(OC)CC1c1cccc(C2(c3ccc(OC(F)F)cc3)N=C(N)N(C)C2=O)c1` (stereo not drawn), 78 to 80 °C; to `CC1(C)COc2ccc(C[C@H](N)[C@H](O)c3cccc(Cl)c3)cc21` (racemic), 83 to 86 °C.

Take `CCCOc1ccccc1N1CCN(CCCCn2c(=O)[nH]c(=O)c3ccccc32)CC1`: the melting point was 68 °C.

With `CSC(=NC(=O)N(C)C)NC(=O)NC(C)(C)C`, the melting point lay within 74 to 78 °C.

The molecule `COc1ccc2ncn(/C=C/C(=O)O)c(=O)c2c1` yielded a melting point of 298 to 299 °C. Regarding `COCCOc1cc2c(Nc3cc(OC)c(Cl)cc3Cl)c(C#N)cnc2cc1F`, the melting point lay in the range of 170 to 172 °C. `CC(C)N(N=O)c1ccc(N(N=O)c2ccccc2)cc1` returned a melting point of 85 to 89 °C. Consider `O=C1c2ccccc2C(=O)N1C[C@H]1CN2C(=O)C[C@@H]2O1` (racemic), for which the melting point lay in the range of 137 to 138 °C.

For `O=[N+]([O-])c1cc(Cn2ccnc2)ccc1NC1CCCCC1`, the melting point worked out at 121 °C. The same measure for `COc1ccc(S(=O)C(C(=O)NO)C(C)C)cc1` (stereo not drawn): 163 °C; for `COc1cc(Br)c2nc(-c3ccc(OC)c(F)c3)cc(Br)c2c1`: 178 to 179 °C.

The molecule `CCC[C@H]1CC[C@H](OC(=O)c2ccc(OCC)c(F)c2F)CC1` came in with a melting point of 93 °C.

Take `COc1ccc(C#N)cc1OC1COCC1OC` (stereo not drawn): the melting point lay within 98 to 100 °C. Molecule `Cc1cc(C=CC#N)cc(Oc2[nH]c(=O)[nH]c(=O)c2C(C)C)c1` registered a melting point of 279 to 280 °C. Turning to `CC(C)(C)[C@H]1CC[C@@H](Nc2nnc(Cc3ccncc3)c3ccccc23)CC1`, the melting point is 64 to 65 °C.

In the case of `CN(O)C(=O)Nc1ccc([N+](=O)[O-])c(C(F)(F)F)c1`, the melting point lay within 129 to 130 °C. For the molecule `CCOc1ccc(N(C)C=C(C#N)C#N)cc1`, the melting point was in the range of 147 to 148 °C. `Cc1ccc(S(=O)(=O)OCC2Cc3cccc(-c4ccc(C(F)(F)F)cc4)c3O2)cc1` (stereo not drawn): the melting point fell in the range of 116 to 118 °C. The same measure for `CC[C@H]1c2cccn2-c2cc(F)c(F)cc2N1S(=O)(=O)c1ccc(O)c(C)c1`: 161 to 163 °C; for `COc1ccc(S(=O)(=O)C(C=CC(C)C)(CC=C(C)C)C(=O)NO)cc1` (stereo not drawn): 93 to 96 °C. Regarding `CCc1cc2c(s1)-n1c(C)nnc1C(CCCC(=O)Nc1ccccc1)N=C2c1ccc(Cl)cc1` (stereo not drawn), the melting point fell in the range of 238 to 240 °C.

As to `Cc1ccccc1-c1nccc2c(CC(=O)O)cccc12`, the melting point is 192 °C. Molecule `CC(=O)OC1CSC(Oc2cccc(Cl)n2)C(OC(C)=O)C1OC(C)=O` (stereo not drawn) gave a melting point of 127 °C. The molecule `Cc1cc(C)nc(C(N)=NO)n1` displayed a melting point of 209 °C. To `CCOC(=O)C(Oc1ccc(Cl)cc1)c1ccc(Oc2ccc(Cl)cc2)cc1` (stereo not drawn) belongs 52.5 to 54 °C. To `O=C(O)C[C@H]1CCCCN1C(=O)C=Cc1c(-c2ccccc2)nn2ccccc12` belongs 165 to 166 °C.

`COc1cc(F)ccc1CCn1ccn2c(=O)cc(-c3ccncn3)nc12` gave a melting point of 196 to 198 °C. `Nc1ccc(CCc2ccc(Cl)c(Cl)c2)cc1` registered a melting point of 68 to 70 °C. In turn, `CC(NC(=O)C(CS)C1CCc2ccccc21)C(=O)O` (stereo not drawn) displayed a melting point of 121 °C.

Regarding `Cc1cccc(OCC(F)(F)F)c1N(Cc1cc[nH]n1)C(=O)CCl`, the melting point was 104 to 105 °C. On to `CCCc1n[nH]c(CCC)n1`, for which the melting point was in the range of 69 to 70 °C. As for `N#CCCn1cccc1-c1ccc2cnc(Nc3ccc(N4CCOCC4)cc3)nn12`, the melting point fell in the range of 85 to 89 °C. To `Cc1ccc(-c2ccccc2-c2n[nH]c(C(c3ccccc3)(c3ccccc3)c3ccccc3)n2)cc1` belongs 120 to 122 °C; to `COC(=O)C(C)(C)Cc1ccc2cc(CC(C)(C)C(=O)OC)ccc2c1`, 108 to 110 °C. The same measure for `COC(=O)c1ccc(-c2nc(COc3ccc(COc4nn(-c5ccccc5)cc4C=O)cc3OC)c(C)o2)cc1`: 190 to 191 °C; for `C=CC1CCC2C3CCC4=CC(=O)CCC4(C)C3CCC12C` (stereo not drawn): 122 to 124 °C; for `COCCOc1ccc(CCCNS(=O)(=O)c2ccccc2[N+](=O)[O-])c(Oc2ncc(C(F)(F)F)cc2Cl)c1`: 126 °C. To `Cc1ccc(C2(CNC(=O)Nc3c(C(C)C)cccc3C(C)C)CCCC2)cc1` belongs 159 to 161 °C; to `O=C(Nc1ccc(NCc2ccccc2)cc1)C(=O)N1CCC(Cc2ccccc2)CC1`, 126 to 128 °C; to `COc1ccc(/C(C)=C/c2ccc(CO)cc2)cc1C(C)(C)C`, 88 to 90 °C.

Regarding `CC(C)C(O)CCC(C)C1CCC2C3CC(O)C4CC(O)CCC4(C)C3CCC12C` (stereo not drawn), the melting point is 169 to 173 °C. As for `C1=C(c2ccccc2)c2ccccc2C1(Cc1ccncc1)Cc1ccncc1`, the melting point is above 250 °C. With `CN(N=Cc1ccc(C#N)cc1)C(=O)c1[nH]c2ccccc2c1-c1ccccc1`, the melting point lay within 194 to 196 °C. To `Nc1ncnc2c1c(-c1ccc(Oc3ccccc3)cc1)nn2C1CCOCC1` belongs 187 to 188 °C; to `O=S(=O)(Cl)CCCCCc1ccc(OCc2ccccc2)cc1`, 58 to 60 °C; to `O=C1NC(=Cc2ccc(Cl)cc2Cl)C(=O)C1=NO`, 180 °C. Molecule `COc1cccc2c1CC(C(=O)NCCOc1ccc(C(=O)OC(C)(C)C)cc1)N2S(=O)(=O)c1ccc(-c2ccc(F)cc2Cl)cc1` (stereo not drawn) gave a melting point of 79 to 85 °C. The same measure for `OCc1sc(Cl)nc1-c1ccc(F)cc1`: 97 to 98.5 °C; for `O=C(Nc1cccc(S(=O)(=O)NCc2ccccn2)c1)c1cnn2c(C(F)(F)F)cc(-c3ccc(C(F)(F)F)cc3)nc12`: 229 °C. `CCCCCCCCCCCCCCC1CC(=O)N(NC(=O)CCc2cc(C(C)(C)C)c(O)c(C(C)(C)C)c2)C1=O` (stereo not drawn) came in with a melting point of 70 to 77 °C. To `CCCCNc1c([N+](=O)[O-])cc(C(=O)O)cc1S(N)(=O)=O` belongs 192 °C; to `Cn1c(Cl)c(C(=O)O)c2ccc(Cl)cc21`, 243 to 245 °C; to `CN(O)C(=O)NC1CCCc2sccc21` (stereo not drawn), 98 to 102 °C. As to `S=Cc1cccc(Cl)c1Cc1ccccc1`, the melting point was in the range of 68 to 70 °C.

The molecule `FC(F)(F)c1cccc(CSc2nnc(-c3ccc4c(c3)CCO4)o2)c1` returned a melting point of 88 to 90 °C. As to `CCOC(=O)c1c(Cl)nc2cc(F)c(C)cc2c1CCl`, the melting point was above 250 °C. `c1ccc(Cn2ccc3ccccc32)cc1` yielded a melting point of 43 to 45 °C.
